Results from ChEMBL document CHEMBL4813989, “Design, synthesis, and biological evaluation of nitroisoxazole-containing spiro[pyrrolidin-oxindole] derivatives as novel glutathione peroxidase 4/mouse double minute 2 dual inhibitors that inhibit breast adenocarcinoma cell proliferation” (Eur J Med Chem, 2021).
Activity calls are given as the source filed them. No cut-off for these calls is given here.

Assays:
MCF7 [1] = assay: Antiproliferative activity against human MCF7 cells assessed as reduction in cell growth incubated for 48 hrs by CCK8 assay; settings: MCF7, 48 h
MCF7 [2] = assay: Antiproliferative activity against human MCF7 cells assessed as reduction in cell growth incubated for 48 hrs in presence of Fer-1 by CCK8 assay; settings: MCF7, 48 h
MCF-10A = assay: Cytotoxicity against human MCF-10A cells assessed as reduction in cell viability incubated for 48 hrs by CCK8 assay; assay type: cell-based
[3] = target: E3 ubiquitin-protein ligase Mdm2 (Homo sapiens, UniProt Q00987); assay: Inhibition of MDM2 (unknown origin) using peptide as substrate incubated for 30 mins by fluorescence polarization assay
MCF7 [4] = assay: Induction of apoptosis in human MCF7 cells assessed as increase in cleaved caspase-9 level at 2 uM incubated for 48 hrs by Western blot analysis; assay type: functional, cell-based
[5] = target: T1, Phospholipid hydroperoxide glutathione peroxidase GPX4 (Homo sapiens) (UniProt P36969); assay: Inhibition of GPX4 in human MCF7 cells assessed as increase in GPX4 degradation incubated for 48 hrs by Western blot analysis; assay type: cell-based; settings: dose 0.1-2 µM
T1 sequence (whole entry): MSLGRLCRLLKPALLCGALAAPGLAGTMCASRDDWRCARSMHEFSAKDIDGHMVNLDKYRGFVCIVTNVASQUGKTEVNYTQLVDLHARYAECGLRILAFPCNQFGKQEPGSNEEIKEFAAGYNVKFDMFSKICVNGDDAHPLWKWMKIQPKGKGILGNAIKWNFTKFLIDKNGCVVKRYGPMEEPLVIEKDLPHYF

MCF7 [6] = assay: Induction of apoptosis in human MCF7 cells at 0.1 to 1 uM incubated for 48 hrs by annexin-V-FITC and PI staining based flow cytometry analysis; assay type: functional, cell-based; settings: dose 0.1-1 µM
MCF7 [7] = assay: Induction of apoptosis in human MCF7 cells at 0.1 to 1 uM incubated for 48 hrs in presence of Fer-1 by annexin-V-FITC and PI staining based flow cytometry analysis; assay type: functional, cell-based; settings: dose 0.1-1 µM

Chain of E3 ubiquitin-protein ligase Mdm2 (Q00987 whole entry): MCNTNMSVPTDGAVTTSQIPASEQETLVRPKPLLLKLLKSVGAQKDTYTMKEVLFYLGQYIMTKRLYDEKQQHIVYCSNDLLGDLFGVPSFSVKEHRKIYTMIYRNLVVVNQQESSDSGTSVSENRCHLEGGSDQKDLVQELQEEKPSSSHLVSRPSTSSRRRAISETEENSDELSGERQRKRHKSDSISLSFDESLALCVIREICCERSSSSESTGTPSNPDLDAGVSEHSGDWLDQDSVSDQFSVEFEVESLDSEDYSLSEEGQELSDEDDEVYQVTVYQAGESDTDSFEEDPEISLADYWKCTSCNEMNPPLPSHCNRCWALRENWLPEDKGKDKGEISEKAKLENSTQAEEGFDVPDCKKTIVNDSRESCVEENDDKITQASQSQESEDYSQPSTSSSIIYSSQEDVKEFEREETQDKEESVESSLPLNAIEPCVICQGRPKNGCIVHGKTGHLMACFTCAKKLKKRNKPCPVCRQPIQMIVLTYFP

Structure (SMILES) | IC50 (MCF7 [1]) [µM] | IC50 (MCF7 [2]) [µM] | Activity (MCF-10A) | Ki [3] [µM] | Activity (MCF7 [4]) | inhibition [5] | Activity (MCF7 [6]) | Activity (MCF7 [7])
Cc1noc([C@@H]2[C@@H](c3ccc(Cl)c(Cl)c3)[C@H](C(F)(F)F)N[C@@]23C(=O)Nc2ccccc23)c1[N+](=O)[O-] | 3.22 | > 20 | Non-Toxic | – | – | – | – | –
CC(=O)N1C(=O)[C@@]2(N[C@@H](C(F)(F)F)[C@H](c3ccccc3)[C@H]2c2onc(C)c2[N+](=O)[O-])c2ccccc21 | 3.23 | > 20 | Non-Toxic | > 10 | – | – | – | –
Cc1noc([C@@H]2C(c3cccs3)[C@H](C(F)(F)F)N[C@@]23C(=O)Nc2ccccc23)c1[N+](=O)[O-] (single isomer, unassigned) | 1.53 | 19 | Non-Toxic | – | – | – | – | –
Cc1ccc2c(c1)[C@]1(N[C@@H](C(F)(F)F)[C@H](c3ccccc3)[C@H]1c1onc(C)c1[N+](=O)[O-])C(=O)N2 | 4.91 | 18.1 | Non-Toxic | – | – | – | – | –
Cc1noc([C@@H]2[C@@H](c3ccccc3)[C@H](C(F)(F)F)N[C@@]23C(=O)Nc2ccc(Cl)cc23)c1[N+](=O)[O-] | 0.37 | 19.8 | Non-Toxic | – | – | – | – | –
Cc1ccc([C@H]2[C@H](C(F)(F)F)N[C@@]3(C(=O)Nc4ccccc43)[C@@H]2c2onc(C)c2[N+](=O)[O-])cc1 | 2.81 | 18.8 | Non-Toxic | – | – | – | – | –
Cc1onc(C(=O)N2CCN(C(c3ccc(Cl)cc3)c3ccc(Cl)cc3)CC2)c1[N+](=O)[O-] | 0.076 | > 20 | – | – | – | – | – | –
Cc1noc([C@@H]2[C@@H](c3ccc(C(C)C)cc3)[C@H](C(F)(F)F)N[C@@]23C(=O)Nc2ccccc23)c1[N+](=O)[O-] | 2.83 | > 20 | Non-Toxic | – | – | – | – | –
Cc1noc([C@@H]2[C@@H](c3ccccc3)[C@H](C(F)(F)F)N[C@@]23C(=O)Nc2ccc([N+](=O)[O-])cc23)c1[N+](=O)[O-] | 4.75 | > 20 | Non-Toxic | – | – | – | – | –
Cc1ccccc1[C@H]1[C@H](C(F)(F)F)N[C@@]2(C(=O)Nc3ccccc32)[C@@H]1c1onc(C)c1[N+](=O)[O-] | 3.5 | > 20 | Non-Toxic | > 10 | – | – | – | –
COc1ccc([C@H]2[C@H](C(F)(F)F)N[C@@]3(C(=O)Nc4ccccc43)[C@@H]2c2onc(C)c2[N+](=O)[O-])cc1OC | 4.13 | > 20 | Non-Toxic | – | – | – | – | –
Cc1noc([C@@H]2[C@@H](c3ccc(Cl)cc3)[C@H](C(F)(F)F)N[C@@]23C(=O)Nc2ccccc23)c1[N+](=O)[O-] | 1.14 | > 20 | Non-Toxic | – | – | – | – | –
Cc1noc([C@@H]2[C@@H](c3ccccc3)[C@H](C(F)(F)F)N[C@@]23C(=O)Nc2ccccc23)c1[N+](=O)[O-] | 0.38 | 17.6 | Non-Toxic | – | – | – | – | –
Cc1noc([C@@H]2[C@@H](c3ccccc3)[C@H](C(F)(F)F)N[C@@]23C(=O)Nc2ccc(Br)cc23)c1[N+](=O)[O-] | 0.55 | 16.3 | Non-Toxic | – | – | – | – | –
Cc1noc([C@@H]2[C@@H](c3ccc(Br)cc3)[C@H](C(F)(F)F)N[C@@]23C(=O)Nc2ccccc23)c1[N+](=O)[O-] | 3.01 | 17 | Non-Toxic | – | – | – | – | –
COc1ccc(C2=NC(c3ccc(Cl)cc3)C(c3ccc(Cl)cc3)N2C(=O)N2CCNC(=O)C2)c(OC(C)C)c1 (stereo not drawn) | 14.6 | 15.7 | – | – | Active | inactive | – | –

Structure (SMILES) | IC50 (MCF7 [1]) [µM] | IC50 (MCF7 [2]) [µM] | Activity (MCF-10A) | Ki [3] [µM] | Activity (MCF7 [4]) | inhibition [5] | Activity (MCF7 [6]) | Activity (MCF7 [7])
Cc1noc([C@@H]2[C@@H](c3ccccc3)[C@H](c3ccccc3)N[C@@]23C(=O)Nc2ccccc23)c1[N+](=O)[O-] | 5.24 | > 20 | Non-Toxic | – | – | – | – | –
Cc1noc([C@@H]2[C@@H](c3ccc(F)cc3)[C@H](C(F)(F)F)N[C@@]23C(=O)Nc2ccccc23)c1[N+](=O)[O-] | 0.55 | 17.4 | Non-Toxic | – | – | – | – | –
Cc1noc([C@@H]2[C@@H](c3ccccc3)[C@H](C(F)(F)F)N[C@@]23C(=O)Nc2ccc(F)cc23)c1[N+](=O)[O-] | 0.21 | 15.6 | Non-Toxic | – | – | – | – | –
Cc1noc([C@@H]2[C@@H](c3cccc4ccccc34)[C@H](C(F)(F)F)N[C@@]23C(=O)Nc2ccccc23)c1[N+](=O)[O-] | 7.17 | > 20 | Non-Toxic | – | – | – | – | –
Cc1noc([C@@H]2[C@@H](c3ccccc3Cl)[C@H](C(F)(F)F)N[C@@]23C(=O)Nc2ccccc23)c1[N+](=O)[O-] | 3.77 | > 20 | Non-Toxic | > 10 | – | – | – | –
COc1ccccc1[C@H]1[C@H](C(F)(F)F)N[C@@]2(C(=O)Nc3ccccc32)[C@@H]1c1onc(C)c1[N+](=O)[O-] | 4.59 | > 20 | Non-Toxic | > 10 | – | – | – | –
Cc1noc([C@@H]2[C@@H](c3cccc(F)c3)[C@H](C(F)(F)F)N[C@@]23C(=O)Nc2ccccc23)c1[N+](=O)[O-] | 0.87 | 15.6 | Non-Toxic | – | – | – | – | –
C=CCN1C(=O)[C@@]2(N[C@@H](C(F)(F)F)[C@H](c3ccccc3)[C@H]2c2onc(C)c2[N+](=O)[O-])c2ccccc21 | 3.42 | > 20 | Non-Toxic | > 10 | – | – | – | –
Cc1noc([C@@H]2C(c3ccco3)[C@H](C(F)(F)F)N[C@@]23C(=O)Nc2ccccc23)c1[N+](=O)[O-] (single isomer, unassigned) | 1.46 | 14.3 | Non-Toxic | – | – | – | – | –
Cc1noc([C@@H]2[C@@H](c3cccc(Br)c3)[C@H](C(F)(F)F)N[C@@]23C(=O)Nc2ccccc23)c1[N+](=O)[O-] | 2.31 | > 20 | Non-Toxic | – | – | – | – | –
Cc1noc([C@@H]2[C@@H](c3ccc([N+](=O)[O-])cc3)[C@H](C(F)(F)F)N[C@@]23C(=O)Nc2ccccc23)c1[N+](=O)[O-] | 5.36 | > 20 | Non-Toxic | – | – | – | – | –
Cc1noc([C@@H]2[C@@H](c3cc(Cl)ccc3Cl)[C@H](C(F)(F)F)N[C@@]23C(=O)Nc2ccccc23)c1[N+](=O)[O-] | 3.98 | > 20 | Non-Toxic | > 10 | – | – | – | –
Cc1noc([C@@H]2[C@@H](c3ccccc3)[C@H](C(F)(F)F)N[C@@]23C(=O)Nc2cc(Br)ccc23)c1[N+](=O)[O-] | 0.17 | 13.7 | Non-Toxic | – | – | – | Active | Active
Cc1noc([C@@H]2[C@@H](c3ccccc3Br)[C@H](C(F)(F)F)N[C@@]23C(=O)Nc2ccccc23)c1[N+](=O)[O-] | 4.71 | > 20 | Non-Toxic | > 10 | – | – | – | –
Cc1noc([C@@H]2[C@@H](c3ccccc3)[C@H](C(F)(F)F)N[C@@]23C(=O)N(C)c2ccccc23)c1[N+](=O)[O-] | 3.52 | > 20 | Non-Toxic | > 10 | – | – | – | –
